According to patent US20030203959A1, “Novel modulators of potassium channels” (4SC AG, priority 2002, published 2003):

The compounds below were run against BK channels, cloned hSlo (α-hSlo and β-bSlo) in CHO cells (Homo sapiens, UniProt Q12791) (assay: Em-Assay (voltage sensitive dye DiBAC(4)3 fluorescence, membrane potential)). Conditions: ratio of the compound effect (50 μM) compared to the maximal effect of NS004 (25 or 50 μM); hSlo transfected CHO cells.
Assay type: cell-based
Description: The large conductance, voltage dependent and Ca^2+-activated potassium channel BK is a potassium selective ion channel and belongs to the subfamily of KCa channels. Four BK alpha-subunits form a functional channel that can be regulated by intracellular Ca^2+ concentration, membrane voltage, and other mechanisms like phosphorylation states or beta subunits. To test the biological activity of the compounds, we applied two different techniques, a fluorescence based assay using a voltage sensitive dye (Em-Assay) as well as exploiting electrophysiological methods.
CHO cells permanently transfected with cloned hSlo (α-hSlo and β-bSlo), yielding typical BK potassium currents (Zhou et al., Pflügers Arch., 436: 725-734 (1998), were used for the evaluation of compound activity. Activation or inhibition of BK channels in these cells leads to a change of the electrochemical gradient causing a hyperpolarized or depolarised membrane potential, respectively.
To determine changes in the membrane potential of the cells we used the voltage sensitive dye DiBAC(4)3 (Molecular Probes) in a kinetic assay system using a fluorescent plate reader (Manning and Sontheimer, J. Neurosci. Meth., 91: 73-81 (1999). The anionic bis-oxonol DiBAC(4)3 is a voltage sensitive dye which partitions from the extracellular environment into the cell where it reversibly binds to intracellular proteins, a kinetic process depending on the membrane potential of the cell. At depolarised potentials (i.e. at a reduced K^+ efflux due to blocked K^+ channels) the dye accumulates in the cell leading to an increased fluorescence intensity, due to its increased fluorescence if bound to cellular proteins. At hyperpolarized potentials (i.e. at an increased K^+ efflux due to the opening of K^+ channels), the dye partitions out of the cell causing a decreased fluorescence intensity.
hSlo transfected CHO cells where maintained in DMEM supplemented with 10% FCS, 250 μg/ml Geneticin, 100 μg/ml Hygromycin, 1×HT-Supplement, and 1×Non-essential Amino Acids and cultured in a humidified CO2 incubator. After trypsination, cells where plated with a density of 5×10^4 cells per well on a clear 96-well plate and incubated for 24 h. Cells where washed once with PBS, once with PBS containing 20 mM HEPES (adjusted to pH 7.4 with NaOH) and 2 μM DiBAC(4)3 (DPBS-DiMAC solution). 180 μl of the dPBS-DiBAC solution was then added to the cells and the plate incubated for 30-60 min at 37° C. During this time the dye could partition into the cells and reach a certain steady-state distribution, depending on the resting membrane potential. Test and reference compounds were stored as DMSO stock solutions and diluted in dPBS-DiBAC solution to the desired concentration.
Fluorescence intensity (Ex.: 485 nm/Em: 520 nm) of each well was detected in the plate reader (Fluostar, BMG) every 60 seconds. After recording the baseline fluorescence for 7 minutes, 20 μl test and reference compounds were added and the fluorescence intensity was detected for additional 15 minutes. Background was subtracted, data values were normalized and expressed as a change in fluorescence intensity against time. The change in fluorescence intensity caused by the test compounds was evaluated compared to the effect of the reference compound NS004, and the ratio was determined (see Table I).

BK channels, cloned hSlo (α-hSlo and β-bSlo) in CHO cells, sequence (Q12791 whole entry): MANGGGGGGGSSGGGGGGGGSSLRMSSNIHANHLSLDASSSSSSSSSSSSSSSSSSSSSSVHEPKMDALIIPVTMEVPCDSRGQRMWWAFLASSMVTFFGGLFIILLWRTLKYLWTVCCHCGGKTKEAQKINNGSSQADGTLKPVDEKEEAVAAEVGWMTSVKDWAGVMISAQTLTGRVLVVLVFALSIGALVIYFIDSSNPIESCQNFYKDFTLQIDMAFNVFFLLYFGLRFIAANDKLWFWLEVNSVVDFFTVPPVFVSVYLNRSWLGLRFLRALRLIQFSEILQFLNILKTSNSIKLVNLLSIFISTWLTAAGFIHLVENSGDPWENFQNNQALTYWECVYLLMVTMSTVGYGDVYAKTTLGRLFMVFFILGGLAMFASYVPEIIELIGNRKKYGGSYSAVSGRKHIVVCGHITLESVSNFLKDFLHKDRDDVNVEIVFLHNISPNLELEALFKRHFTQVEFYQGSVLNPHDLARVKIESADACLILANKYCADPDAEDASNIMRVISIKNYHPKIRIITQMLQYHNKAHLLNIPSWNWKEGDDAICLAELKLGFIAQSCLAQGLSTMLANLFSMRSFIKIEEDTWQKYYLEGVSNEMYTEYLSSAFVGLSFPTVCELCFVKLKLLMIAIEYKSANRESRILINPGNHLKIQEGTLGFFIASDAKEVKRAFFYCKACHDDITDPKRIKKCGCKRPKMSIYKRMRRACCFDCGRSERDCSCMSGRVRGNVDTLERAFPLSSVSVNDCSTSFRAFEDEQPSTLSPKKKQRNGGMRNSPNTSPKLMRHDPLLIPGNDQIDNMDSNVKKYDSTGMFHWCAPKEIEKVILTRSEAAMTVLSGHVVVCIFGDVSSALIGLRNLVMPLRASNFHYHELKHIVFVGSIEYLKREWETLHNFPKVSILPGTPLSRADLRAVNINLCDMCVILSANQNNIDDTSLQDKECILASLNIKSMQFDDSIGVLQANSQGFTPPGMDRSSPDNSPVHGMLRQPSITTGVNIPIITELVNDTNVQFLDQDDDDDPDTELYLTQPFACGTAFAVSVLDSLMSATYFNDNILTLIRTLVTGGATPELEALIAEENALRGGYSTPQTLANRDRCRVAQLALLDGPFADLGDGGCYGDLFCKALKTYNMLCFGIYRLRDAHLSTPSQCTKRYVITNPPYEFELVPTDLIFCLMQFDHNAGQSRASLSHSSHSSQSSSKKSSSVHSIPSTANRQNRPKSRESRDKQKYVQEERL
BK channels, cloned hSlo (α-hSlo and β-bSlo) in CHO cells, sequence (Q28067 whole entry partner): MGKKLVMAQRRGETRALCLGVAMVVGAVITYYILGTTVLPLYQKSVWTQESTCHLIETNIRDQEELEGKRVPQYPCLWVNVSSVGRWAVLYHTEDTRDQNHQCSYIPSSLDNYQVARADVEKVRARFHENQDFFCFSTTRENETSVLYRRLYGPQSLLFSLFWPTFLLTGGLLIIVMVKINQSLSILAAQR

Row | Compound | Em effect
1 | COc1ccccc1-c1cccc2[nH]ccc12 [Compound 24] | + (0-1=+)
2 | c1cc2cc(-c3ccc4c(c3)OCO4)ccc2[nH]1 [Compound 50] | ++ (>1=++)
3 | FC(F)(F)c1ccc(-c2cccc3[nH]ccc23)cc1 [Compound 25] | + (0-1=+)
4 | Clc1ccccc1-c1ccc2[nH]ccc2c1 [Compound 30] | ++ (>1=++)
5 | FC(F)(F)c1cc(-c2ccc3cc[nH]c3c2)cc(C(F)(F)F)c1 [Compound 61] | + (0-1=+)
6 | O=[N+]([O-])c1ccccc1-c1ccc2[nH]ccc2c1 [Compound 33] | + (0-1=+)
7 | COc1ccccc1-c1cccc2cc[nH]c12 [Compound 7] | + (0-1=+)
8 | CC(C)(C)c1ccc(-c2cccc3[nH]ccc23)cc1 [Compound 39] | ++ (>1=++)
9 | CN(C)c1ccc(-c2ccc3cc[nH]c3c2)cc1 [Compound 17] | ++ (>1=++)
10 | c1cc(-c2ccc3[nH]ccc3c2)c2cc[nH]c2c1 [Compound 47] | + (0-1=+)
11 | COc1ccc(-c2ccc3[nH]ccc3c2)cc1 [Compound 54] | ++ (>1=++)
12 | FC(F)(F)c1cc(-c2cccc3[nH]ccc23)cc(C(F)(F)F)c1 [Compound 20] | + (0-1=+)
13 | COc1c(C)cc(-c2ccc3[nH]ccc3c2)cc1C [Compound 51] | ++ (>1=++)
14 | CC(C)(C)c1ccc(-c2ccc3cc[nH]c3c2)cc1 [Compound 62] | + (0-1=+)
15 | Clc1ccc(-c2ccc3cc[nH]c3c2)cc1 [Compound 58] | + (0-1=+)
16 | Fc1ccc(-c2ccc3cc[nH]c3c2)c(F)c1 [Compound 16] | + (0-1=+)
17 | CC(C)(C)c1ccc(-c2ccc3[nH]ccc3c2)cc1 [Compound 32] | + (0-1=+)
18 | c1ccc(COc2ccc(-c3cccc4[nH]ccc34)cc2)cc1 [Compound 36] | + (0-1=+)
19 | Clc1ccccc1-c1ccc2cc[nH]c2c1 [Compound 15] | + (0-1=+)
20 | c1ccc(-c2ccc3[nH]ccc3c2)nc1 [Compound 52] | + (0-1=+)
21 | O=Cc1ccccc1-c1ccc2[nH]ccc2c1 [Compound 31] | + (0-1=+)
22 | Clc1ccc(-c2cccc3cc[nH]c23)s1 [Compound 6] | + (0-1=+)
23 | COc1cccc(-c2cccc3[nH]ccc23)c1 [Compound 56] | + (0-1=+)
24 | c1ccc(-c2cccc(-c3ccc4cc[nH]c4c3)c2)cc1 [Compound 60] | + (0-1=+)
25 | FC(F)(F)Oc1ccc(-c2ccc3[nH]ccc3c2)cc1 [Compound 1] | ++ (>1=++)
26 | COc1ccccc1-c1ccc2[nH]ccc2c1 [Compound 5] | ++ (>1=++)
27 | c1ccc(Oc2ccc(-c3cccc4[nH]ccc34)cc2)cc1 [Compound 57] | + (0-1=+)

Now from value to compound:

Row | Em effect | Compound
28 | + (0-1=+) | CC(=O)c1cccc(-c2ccc3[nH]ccc3c2)c1 [Compound 49]
29 | ++ (>1=++) | CN(C)c1ccc(-c2cccc3cc[nH]c23)cc1 [Compound 11]
30 | + (0-1=+) | Clc1ccccc1-c1cccc2cc[nH]c12 [Compound 9]
31 | + (0-1=+) | Fc1cc(-c2cccc3[nH]ccc23)ccc1-c1ccccc1 [Compound 21]
32 | + (0-1=+) | c1cc(-c2ccsc2)c2cc[nH]c2c1 [Compound 23]
33 | ++ (>1=++) | COc1ccc(-c2ccc3[nH]ccc3c2)c(OC)c1 [Compound 48]
34 | ++ (>1=++) | c1cc2cc(-c3ccc4cc[nH]c4c3)ccc2[nH]1 [Compound 53]
35 | + (0-1=+) | Fc1ccc(-c2cccc3[nH]ccc23)c(F)c1 [Compound 55]
36 | + (0-1=+) | Fc1cccc(-c2ccc3cc[nH]c3c2)c1 [Compound 37]
37 | + (0-1=+) | c1cc2cc(-c3ccc4[nH]ccc4c3)ccc2[nH]1 [Compound 43]
38 | + (0-1=+) | FC(F)(F)c1ccc(-c2cccc3cc[nH]c23)cc1 [Compound 8]
39 | + (0-1=+) | COc1ccc(-c2ccc3cc[nH]c3c2)cn1 [Compound 35]
40 | + (0-1=+) | c1ccc(-c2ccc3[nH]ccc3c2)cc1 [Compound 59]
41 | + (0-1=+) | FC(F)(F)c1ccc(-c2ccc3cc[nH]c3c2)cc1 [Compound 14]
42 | + (0-1=+) | Clc1ccc(-c2ccc3cc[nH]c3c2)s1 [Compound 13]
43 | + (0-1=+) | Clc1ccccc1-c1cccc2[nH]ccc12 [Compound 26]
44 | + (0-1=+) | FC(F)(F)Oc1cccc(-c2cccc3cc[nH]c23)c1 [Compound 38]
45 | ++ (>1=++) | Clc1ccc(-c2ccc3[nH]ccc3c2)cc1 [Compound 46]
46 | + (0-1=+) | FC(F)(F)Oc1cccc(-c2ccc3[nH]ccc3c2)c1 [Compound 34]
47 | ++ (>1=++) | Fc1ccc(-c2ccc3[nH]ccc3c2)c(F)c1 [Compound 3]
48 | + (0-1=+) | CN(C)c1ccc(-c2ccc3[nH]ccc3c2)cc1 [Compound 2]
49 | ++ (>1=++) | FC(F)(F)c1ccc(-c2ccc3[nH]ccc3c2)cc1 [Compound 4]
50 | + (0-1=+) | FC(F)(F)Oc1ccc(-c2cccc3[nH]ccc23)cc1 [Compound 28]
51 | + (0-1=+) | COc1ccccc1-c1ccc2cc[nH]c2c1 [Compound 19]
52 | + (0-1=+) | COc1ccc(-c2cccc3[nH]ccc23)cc1 [Compound 42]
53 | + (0-1=+) | Fc1ccc(-c2cccc3cc[nH]c23)c(F)c1 [Compound 10]
54 | + (0-1=+) | Clc1ccc(-c2cccc3[nH]ccc23)s1 [Compound 22]
55 | + (0-1=+) | CS(=O)(=O)c1ccc(-c2ccc3[nH]ccc3c2)cc1 [Compound 29]
56 | ++ (>1=++) | c1ccc2c(-c3ccc4[nH]ccc4c3)cccc2c1 [Compound 44]

The compounds below were run against BK currents, cloned α-hSlo and β-bSlo in CHO cells (Homo sapiens, UniProt Q12791) (assay: Electrophysiological studies (whole-cell patch-clamp, BK currents)). Conditions: ratio of current increase after application of compound (20 μM) relative to control current before application, steady-state.
Assay type: cell-based
Method: CHO cells permanently transfected with cloned α-hSlo and β-bSlo were maintained as described above and used for electrophysiologial characterisation. The whole-cell configuration of the patch-clamp technique was used to determine the effect of modulators on BK currents in these cells. The cell line expressing functional BK currents (Zhou et al., Pflügers Arch 436, p.725 (1998)) were plated onto glass cover slips with a density of 1-5×10^4 cells/cover slip, incubated (37° C., 5% CO2) and used for patch-clamp experiments within 24-48 h. Cells were bathed in mammalian ringer solutions containing (in mM): 160 NaCl, 4.5 KCl, 2CaCl2, 1 MgCl2, 10 HEPES, adjusted to pH 7.4, 290-310 mOsim. The internal pipette solution contained (in mM): 160 KCl, 2CaCl2, 1 MgCl2, 10 HEPES, EGTA was added to reach a free [Ca^2+]internal=1×10 ^−6M, adjusted to pH 7.2, 290-310 mOsm.
Borosilicate pipettes with a resistance of 2-3 MΩ were filled with the internal solution and mounted on an appropriate holder. Prior to measurements a recording chamber was mounted onto the cell-plated cover slips and the cells were perfused with a simple syringe driven perfusion system. Compounds were added in the final concentration ([…]) to the bath solution using the same system. An EPC-9 patch-clamp amplifier with Pulse and PulseFit software (HEKA) was used to record and analyze currents.
After addition of the compounds to the bath solution their modulating effect was determined by the increase or decrease of specific BK currents after reaching steady-state relative to the BK current before application of drugs (see Table II).

BK currents, cloned α-hSlo and β-bSlo in CHO cells, sequence (Q12791 whole entry): as the sequence (Q12791 whole entry) above
BK currents, cloned α-hSlo and β-bSlo in CHO cells, sequence (Q28067 whole entry partner): as the sequence (Q28067 whole entry partner) above

Row | Compound | Effect (ratio of current increase)
57 | Clc1ccccc1-c1ccc2[nH]ccc2c1 [Compound 30] | + (1-1.1=+)
58 | FC(F)(F)Oc1ccc(-c2ccc3[nH]ccc3c2)cc1 [Compound 1] | ++ (>1,1-1.2=++)
59 | COc1ccccc1-c1ccc2[nH]ccc2c1 [Compound 5] | ++ (>1,1-1.2=++)

The remaining lines, values ahead:

Row | Effect (ratio of current increase) | Compound
60 | +++ (>1.2=+++) | Fc1ccc(-c2ccc3[nH]ccc3c2)c(F)c1 [Compound 3]
61 | + (1-1.1=+) | CN(C)c1ccc(-c2ccc3[nH]ccc3c2)cc1 [Compound 2]
62 | ++ (>1,1-1.2=++) | FC(F)(F)c1ccc(-c2ccc3[nH]ccc3c2)cc1 [Compound 4]
63 | ++ (>1,1-1.2=++) | Clc1ccc(-c2cccc3[nH]ccc23)s1 [Compound 22]
